Drawing on patent US8664220B2, “Polycyclic compounds as lysophosphatidic acid receptor antagonists” (Amira Pharmaceuticals, Inc., priority 2009, dated 2014), this text covers IC50 for 21 compounds.

This assay addresses T1, human LPA1 (Homo sapiens, UniProt Q92633).
T1 construct: the full-length cDNA for human LPA1 was obtained by PCR of the reverse transcription reaction; expressed in transfected cells
Description: LPA1 calcium flux assay. Type of assay: cell-based. Conditions: human LPA1 expressing CHO cells, stimulated with 10 nM LPA; read-out: HLPA1 Ca Flux IC50. In a few lines:
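CHO cells stably expressing human LPA1, serum-starved overnight and loaded with Calcium 4 dye in HBSS/20 mM Hepes/0.3% fatty-acid-free HSA, 1 h at 37 °C. Compounds pre-incubated 30 min at room temperature, then 10 nM LPA added; intracellular Ca2+ flux measured and IC50 from titration curves.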

Broadly, the IC50 is the concentration that gives 50% inhibition.

T1 sequence (Q92633 whole entry): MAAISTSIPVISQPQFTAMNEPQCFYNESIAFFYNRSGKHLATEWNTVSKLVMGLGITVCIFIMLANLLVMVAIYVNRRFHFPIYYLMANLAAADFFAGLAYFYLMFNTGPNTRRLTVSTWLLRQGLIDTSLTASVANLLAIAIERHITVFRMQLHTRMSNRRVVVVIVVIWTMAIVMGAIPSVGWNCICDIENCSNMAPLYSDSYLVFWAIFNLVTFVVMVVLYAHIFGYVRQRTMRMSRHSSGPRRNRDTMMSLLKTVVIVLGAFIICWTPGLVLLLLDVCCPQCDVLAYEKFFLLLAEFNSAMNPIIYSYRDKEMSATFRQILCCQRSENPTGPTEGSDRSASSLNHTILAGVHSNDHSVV

Turning to `Cc1noc(-c2ccc(-c3ccc(C4(C(=O)O)CC4)cc3)cc2)c1Nc1cccc(N(C)c2ccccc2)c1` [Compound 1-106, 1-(4′-{3-Methyl-4-[3-(methyl-phenyl-amino)-phenylamino]-isoxazol-5-yl}-biphenyl-4-yl)-cyclopropanecarboxylic acid], the IC50 is < 300 nM. The result for `Cc1noc(-c2ccc(-c3ccc(C4(C(=O)O)CC4)cc3)cc2)c1Nc1cncc(-c2ccccc2)c1` [Compound 1-107, 1-{4′-[3-Methyl-4-(5-phenyl-pyridin-3-ylamino)-isoxazol-5-yl]-biphenyl-4-yl}-cyclopropanecarboxylic acid] reads < 300 nM; that for `Cc1noc(-c2ccc(-c3ccc(C4(C(=O)O)CC4)cc3)cc2)c1Nc1cncc(-c2cccc(F)c2)c1` [Compound 1-108, 1-(4′-{4-[5-(3-Fluoro-phenyl)-pyridin-3-ylamino]-3-methyl-isoxazol-5-yl}-biphenyl-4-yl)-cyclopropanecarboxylic acid], < 300 nM. The result for `Cc1noc(-c2ccc(-c3ccc(C4(C(=O)O)CC4)cc3)cc2)c1Nc1cccc(-c2ccccc2Cl)n1` [Compound 1-109, 1-(4′-{4-[6-(2-Chloro-phenyl)-pyridin-2-ylamino]-3-methyl-isoxazol-5-yl}-biphenyl-4-yl)-cyclopropanecarboxylic acid] reads < 300 nM. In the case of `Cc1noc(-c2ccc(-c3ccc(C4(C(=O)O)CC4)cc3)cc2)c1C(O)c1cccc(-c2ccccc2)n1` (stereo not drawn) [Compound 1-110, 1-(4′-{4-[Hydroxy-(6-phenyl-pyridin-2-yl)-methyl]-3-methyl-isoxazol-5-yl}-biphenyl-4-yl)-cyclopropanecarboxylic acid] it was < 300 nM; in that of `Cc1noc(-c2ccc(-c3ccc(C4(C(=O)O)CC4)cc3)cc2)c1Nc1ccnc(-c2ccccc2)c1` [Compound 1-111, 1-{4′-[3-Methyl-4-(2-phenyl-pyridin-4-ylamino)-isoxazol-5-yl]-biphenyl-4-yl}-cyclopropanecarboxylic acid], 300 to 1000 nM; in that of `Cc1noc(-c2ccc(-c3ccc(C4(C(=O)O)CC4)cc3)cc2)c1Nc1ccnc(-c2cccc(F)c2)c1` [Compound 1-112, 1-(4′-{4-[2-(3-Fluoro-phenyl)-pyridin-4-ylamino]-3-methyl-isoxazol-5-yl}-biphenyl-4-yl)-cyclopropanecarboxylic acid], 1000 to 50000 nM. Take `Cc1noc(-c2ccc(-c3ccc(C4(C(=O)O)CC4)cc3)cc2)c1Nc1cncc(-c2ccccc2Cl)c1` [Compound 1-113, 1-(4′-{4-[5-(2-Chloro-phenyl)-pyridin-3-ylamino]-3-methyl-isoxazol-5-yl}-biphenyl-4-yl)-cyclopropanecarboxylic acid]: the IC50 was < 300 nM. The result for `Cc1noc(-c2ccc(-c3ccc(C4(C(=O)O)CC4)cc3)cc2)c1Nc1ccnc(-c2ccccc2Cl)c1` [Compound 1-114, 1-(4′-{4-[2-(2-Chloro-phenyl)-pyridin-4-ylamino]-3-methyl-isoxazol-5-yl}-biphenyl-4-yl)-cyclopropanecarboxylic acid] reads < 300 nM; that for `Cc1noc(-c2ccc(-c3ccc(C4(C(=O)O)CC4)cc3)cc2)c1Nc1nccc(-c2ccccc2)n1` [Compound 1-115, 1-{4′-[3-Methyl-4-(4-phenyl-pyrimidin-2-ylamino)-isoxazol-5-yl]-biphenyl-4-yl}-cyclopropanecarboxylic acid], < 300 nM. For the compound `Cc1noc(-c2ccc(-c3ccc(C4(C(=O)O)CC4)cc3)cc2)c1Nc1cc(-c2ccccc2)ccn1` [Compound 1-116, 1-{4′-[3-Methyl-4-(4-phenyl-pyridin-2-ylamino)-isoxazol-5-yl]-biphenyl-4-yl}-cyclopropanecarboxylic acid], the IC50 is < 300 nM. Take `Cc1noc(-c2ccc(-c3ccc(C4(C(=O)O)CC4)cc3)cc2)c1Nc1cccc(-c2ccccc2CN(C)C)c1` [Compound 1-117, 1-{4′-[4-(2′-Dimethylaminomethyl-biphenyl-3-ylamino)-3-methyl-isoxazol-5-yl]-biphenyl-4-yl}-cyclopropanecarboxylic acid]: the IC50 was < 300 nM. Consider `Cc1noc(-c2ccc(-c3ccc(C4(C(=O)O)CC4)cc3)cc2)c1Nc1cncc(-c2cccc(C(F)(F)F)c2)c1` [Compound 1-118, 1-(4′-{3-Methyl-4-[5-(3-trifluoromethyl-phenyl)-pyridin-3-ylamino]-isoxazol-5-yl}-biphenyl-4-yl)-cyclopropanecarboxylic acid], for which the IC50 is < 300 nM.

For the compound `Cc1noc(-c2ccc(-c3ccc(C4(C(=O)O)CC4)cc3)cc2)c1Nc1cncc(-c2ccc(C(F)(F)F)cc2)c1` [Compound 1-119, 1-(4′-{3-Methyl-4-[5-(4-trifluoromethyl-phenyl)-pyridin-3-ylamino]-isoxazol-5-yl}-biphenyl-4-yl)-cyclopropanecarboxylic acid], the IC50 was < 300 nM. With `Cc1noc(-c2ccc(-c3ccc(C4(C(=O)O)CC4)cc3)cc2)c1N(c1cccc(Cc2ccccc2)n1)c1cccc(Cc2ccccc2)n1` [Compound 1-120, 1-(4′-{4-[Bis-(6-benzyl-pyridin-2-yl)-amino]-3-methyl-isoxazol-5-yl}-biphenyl-4-yl)-cyclopropanecarboxylic acid], the IC50 lay within 1000 to 50000 nM. The result for `Cc1noc(-c2ccc(-c3ccc(C4(C(=O)O)CC4)cc3)cc2)c1NC(=O)c1cccc(-c2ccccc2CN(C)C)c1` [Compound 1-121, 1-(4′-{4-[(2′-Dimethylaminomethyl-biphenyl-3-carbonyl)-amino]-3-methyl-isoxazol-5-yl}-biphenyl-4-yl)-cyclopropanecarboxylic acid] reads > 50000 nM; that for `Cc1noc(-c2ccc(-c3ccc(C4(C(=O)O)CCC4)cc3)cc2)c1Nc1cccc(-c2ccccc2)n1` [Compound 1-122, 1-{4′-[3-Methyl-4-(6-phenyl-pyridin-2-ylamino)-isoxazol-5-yl]-biphenyl-4-yl}-cyclobutanecarboxylic acid], < 300 nM. In the case of `Cc1noc(-c2ccc(-c3ccc(C4(C(=O)O)CC4)cc3)cc2)c1Nc1cccc(-n2cccn2)n1` [Compound 1-123, 1-{4′-[3-Methyl-4-(6-pyrazol-1-yl-pyridin-2-ylamino)-isoxazol-5-yl]-biphenyl-4-yl}-cyclopropanecarboxylic acid] it was < 300 nM.

For `Cc1noc(-c2ccc(-c3ccc(C4(C(=O)O)CC4)cc3)cc2)c1Nc1cccc(N2CCOCC2)n1` [Compound 1-124, 1-{4′-[3-Methyl-4-(6-morpholin-4-yl-pyridin-2-ylamino)-isoxazol-5-yl]-biphenyl-4-yl}-cyclopropanecarboxylic acid], the IC50 was < 300 nM.

Consider `Cc1noc(-c2ccc(-c3ccc(C4(C(=O)O)CC4)cc3)cc2)c1Nc1cccc(OCc2ccccc2)n1` [Compound 1-125, 1-{4′-[4-(6-Benzyloxy-pyridin-2-ylamino)-3-methyl-isoxazol-5-yl]-biphenyl-4-yl}-cyclopropanecarboxylic acid], for which the IC50 is < 300 nM.

As to `Cc1noc(-c2ccc(-c3ccc(C4(C(=O)O)CC4)cc3)cc2)c1Nc1cccc(Sc2ccccc2)n1` [Compound 1-126, 1-{4′-[3-Methyl-4-(6-phenylsulfanyl-pyridin-2-ylamino)-isoxazol-5-yl]-biphenyl-4-yl}-cyclopropanecarboxylic acid], the IC50 is < 300 nM.
